The values below come from US20240210412A1, “SULFONYL-TRIAZOLE COMPOUNDS USEFUL AS LIGANDS AND INHIBITORS OF PROSTAGLANDIN REDUCTASE 2” (University of Virginia Patent Foundation, priority 2021, published 2024).

Common to all, as to test: SILAC LC-MS ABPP
What all share (assay type): cell-based
Common to all, as to conditions: 25 μM 2 h, live DM93 cells

In one test the target is T1, Q93052 (Homo sapiens, UniProt Q93052).
T1 construct: endogenous in cells; host or cells: DM93 cells (SILAC), live-cell treatment
T1 sequence (Q93052 1-612): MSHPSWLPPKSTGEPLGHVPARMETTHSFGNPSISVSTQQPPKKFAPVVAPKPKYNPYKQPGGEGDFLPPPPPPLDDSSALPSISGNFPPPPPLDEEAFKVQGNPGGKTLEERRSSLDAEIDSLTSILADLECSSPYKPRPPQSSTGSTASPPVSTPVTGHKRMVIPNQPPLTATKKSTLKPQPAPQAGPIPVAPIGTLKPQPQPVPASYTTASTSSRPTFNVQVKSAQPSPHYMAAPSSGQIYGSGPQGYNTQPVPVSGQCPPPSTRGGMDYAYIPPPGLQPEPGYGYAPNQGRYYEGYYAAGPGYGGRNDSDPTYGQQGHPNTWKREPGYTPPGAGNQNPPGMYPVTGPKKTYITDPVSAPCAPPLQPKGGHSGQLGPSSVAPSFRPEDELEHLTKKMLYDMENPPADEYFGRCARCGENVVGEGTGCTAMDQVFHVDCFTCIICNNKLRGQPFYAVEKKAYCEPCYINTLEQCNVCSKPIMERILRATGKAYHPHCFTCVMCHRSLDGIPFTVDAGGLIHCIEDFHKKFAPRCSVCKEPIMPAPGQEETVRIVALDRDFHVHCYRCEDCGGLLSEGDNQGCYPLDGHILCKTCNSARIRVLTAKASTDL
On the procedure: (§1) Cells were grown to 90-95% confluence before being washed once with warm, sterile DPBS (1×, 5 mL), followed by addition of 10 mL of serum-free media (supplemented with 1% L-glutamine) containing either DMSO or SuTEx fragment (in DMSO) was added. Light cells were treated with DMSO vehicle while the heavy cells were treated with DMSO or SuTEx fragment (in DMSO) and incubated for 2 hrs. After 2 hrs, the cells were treated with SuTEx alkyne probe (HHS475, 10 μL of 1000× DMSO stock) and incubated for an additional 2 hrs. The media was aspirated and cells washed with cold PBS (5 mL) and harvested. Cells were spun at 500×g for 5 min at 4° C. followed by removal of supernatant. Pellets were resuspended in 1 mL of cold DPBS and spun at 1,400×g for 3 min at 4° C. followed by removal of supernatant. The cells were lysed in PBS by sonication and fractionated (100,000×g, 45 min, 4° C.).The light and heavy soluble fractions were diluted to 2.3 mg/mL in PBS and 432 μL were used for analysis (1 mg total protein). The probe-modified proteomes were conjugated to desthiobiotin-PEG3-azide (10 μl of 10 mM stock in DMSO; 200 μM final concentration) using TCEP (10 μl of fresh 50 mM stock in water, 1 mM final concentration), TBTA ligand (33 μl of a 1.7 mM 4:1 t-butanol/DMSO stock, 100 μM final concentration) and CuSO4 (10 μl of 50 mM stock, 1 mM final concentration). Samples were vortexed to mix and incubated for 1 hr at room temperature. The heavy and light proteomes were mixed 1:1 and the subsequent steps, including LC-MS/MS data analysis, were performed as previously described^[8a].
(§2) Coupling cell-based screens with chemical proteomics can facilitate the identification of target protein and binding sites that engage and are irreversibly modified by covalent ligands^[12]. In these assays, covalent ligands block SuTEx activity-based probe (ABP) labeling at protein sites, and the competition of probe labeling can be used to quantify potency and selectivity across the proteome^[10a]. To facilitate quantitative chemical proteomics, DM93 melanoma cells were cultured using stable isotopic labeling by amino acids in cell culture (SILAC)^[13]. Cells cultured in “light” media were treated with dimethyl sulfoxide (DMSO) vehicle while cells cultured in “heavy” media were treated with SuTEx ligand (25 μM, 2 hours, 37° C.). Next, cells were treated with HHS-475 probe (100 μM, 2 hours, 37° C.) followed by lysis and processing of proteomes for analysis. Probe-modified proteins from the soluble fraction were conjugated to a desthiobiotin-azide tag by copper-catalyzed azide-alkyne cycloaddition (CuAAC)^[14] followed by mixing of the light and heavy proteomes. The combined proteomes were digested with trypsin protease to produce probe-modified peptides, followed by enrichment and purification by avidin affinity chromatography. Probe-modified peptides were resolved, identified, and quantified by high-resolution liquid chromatography-tandem mass spectrometry (LC-MS/MS). Resultant data were analyzed as previously described^[8a, 10a]. Table 2, below, lists sites of modification targeted by sulfonyl-triazole compounds HHS-0101, HHS-0201, HHS-0301, HHS-0401, and HHS-0701. The format of the table is as follows: protein Uniprot accession number (see uniprot.org); tyrosine site (amino acid position) modified; treatment (sulfonyl-triazole compound identification number, followed by Y (where if multiple compounds modify the same site, the compounds are separated by vertical lines).

A further test concerns the target T2, Q9ULV4 (Homo sapiens, UniProt Q9ULV4).
T2 construct: endogenous in cells; host or cells: DM93 cells (SILAC)
On the procedure: as §1, §2

The target of another test is T3, Q96AE4 (Homo sapiens, UniProt Q96AE4).
T3 construct: endogenous in cells; host or cells: DM93 cells (SILAC), treated live; soluble proteome analysed
T3 sequence (Q96AE4 whole entry): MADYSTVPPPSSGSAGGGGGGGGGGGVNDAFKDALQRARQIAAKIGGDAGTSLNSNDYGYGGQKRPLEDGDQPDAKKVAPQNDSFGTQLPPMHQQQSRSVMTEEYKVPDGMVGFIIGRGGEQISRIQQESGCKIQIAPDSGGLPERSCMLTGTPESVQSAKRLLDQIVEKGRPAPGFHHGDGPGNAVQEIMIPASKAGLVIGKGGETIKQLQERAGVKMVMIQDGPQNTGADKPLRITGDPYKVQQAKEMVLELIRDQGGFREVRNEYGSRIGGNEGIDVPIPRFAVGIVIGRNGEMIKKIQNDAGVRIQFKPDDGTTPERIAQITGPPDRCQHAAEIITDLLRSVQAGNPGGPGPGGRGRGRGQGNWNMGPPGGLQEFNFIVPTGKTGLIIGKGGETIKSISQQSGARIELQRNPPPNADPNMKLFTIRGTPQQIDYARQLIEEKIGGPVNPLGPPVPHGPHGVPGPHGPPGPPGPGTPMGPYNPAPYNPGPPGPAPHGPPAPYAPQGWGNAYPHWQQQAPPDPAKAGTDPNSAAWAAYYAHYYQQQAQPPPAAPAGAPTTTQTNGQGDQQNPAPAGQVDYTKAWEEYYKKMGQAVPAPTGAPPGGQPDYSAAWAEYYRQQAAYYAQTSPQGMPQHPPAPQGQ
On the procedure:
as §1, §2

T2 sequence (Q9ULV4 whole entry): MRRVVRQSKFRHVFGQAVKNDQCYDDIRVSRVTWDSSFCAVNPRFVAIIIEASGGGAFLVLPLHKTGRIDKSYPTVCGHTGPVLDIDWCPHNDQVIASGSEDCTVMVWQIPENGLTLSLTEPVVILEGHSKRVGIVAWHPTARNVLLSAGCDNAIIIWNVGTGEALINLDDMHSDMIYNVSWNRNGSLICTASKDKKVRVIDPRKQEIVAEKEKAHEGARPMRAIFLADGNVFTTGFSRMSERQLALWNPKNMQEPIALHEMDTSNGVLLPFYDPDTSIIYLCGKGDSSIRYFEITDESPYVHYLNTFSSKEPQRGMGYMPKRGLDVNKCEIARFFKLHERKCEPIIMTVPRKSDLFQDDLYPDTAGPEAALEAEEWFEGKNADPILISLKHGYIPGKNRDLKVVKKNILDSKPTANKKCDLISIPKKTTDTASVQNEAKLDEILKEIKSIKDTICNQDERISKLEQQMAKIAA

As for `O=C(NC1CCCCC1)c1ccc(S(=O)(=O)n2cncn2)cc1` [HHS-0301, 4-((1H-1,2,4-triazol-1-yl)sulfonyl)-N-cyclohexylbenzamide], the “liganded tyrosine site 234” value at Q93052 is on record as “HHS0301.Y|HHS0401.Y (tyrosine sites that showed >80% reductions (SR >5) in probe labeling in cells treated with compounds (liganded sites))”. For the same compound, the “liganded tyrosine site 301” value at Q9ULV4 is given as “HHS0301.Y (tyrosine sites that showed >80% reductions (SR >5) in probe labeling in cells treated with compounds (liganded sites))”.

For `O=C(c1ccc(S(=O)(=O)n2cncn2)cc1)N1CCC(c2ccccc2)CC1` [HHS-0701, (4-((1H-1,2,4-triazol-1-yl)sulfonyl)phenyl)(4-phenylpiperidin-1-yl)methanone], at Q96AE4, the “liganded tyrosine site 619” value is given as “HHS0701.Y (tyrosine sites that showed >80% reductions (SR >5) in probe labeling in cells treated with compounds (liganded sites))”. For the same compound, the “liganded tyrosine site 304” value at Q9ULV4 is “HHS0701.Y (tyrosine sites that showed >80% reductions (SR >5) in probe labeling in cells treated with compounds (liganded sites))”.

For the compound `O=C(NC1CC1)c1ccc(S(=O)(=O)n2cncn2)cc1` [HHS-0101, 4-((1H-1,2,4-triazol-1-yl)sulfonyl)-N-cyclopropylbenzamide], on Q93052, the “liganded tyrosine site 251” value was “HHS0101.Y|HHS0401.Y (tyrosine sites that showed >80% reductions (SR >5) in probe labeling in cells treated with compounds (liganded sites))” and the “liganded tyrosine site 332” value is recorded as “HHS0101.Y (tyrosine sites that showed >80% reductions (SR >5) in probe labeling in cells treated with compounds (liganded sites))”. Moreover, the “liganded tyrosine site 438” value at Q96AE4 was “HHS0101.Y (tyrosine sites that showed >80% reductions (SR >5) in probe labeling in cells treated with compounds (liganded sites))”.
